US4540581A, “Topical nonsteroidal anti-inflammatory compositions and uses” (Bristol-Myers Company, priority 1984, dated 1985)
“And” between values parts separate entries of the source, which are not always exact repeats. Equal values may be shown once. Where a name gives a salt, the structure may show the parent alone.

Legend:
[1] = test system: Croton Oil-Induced Mouse Ear Edema; assay: Croton oil-induced ear edema in mice (Example 1); format: in vivo; conditions: for % Inhibition of Croton Oil-Induced Mouse Ear Edema: topical, 6 h, mean of 10 to 15 animals; for Reduction in ear edema in the croton oil assay (in words): zinterol at 1.6 and 0.2 w/v percent, bitolterol at 1.6 w/v percent; for Topical Anti-Inflammatory Activity, Croton Oil Assay (Edema): summary grade of % inhibition
Description: In the croton oil assay, (which is a standard test, which is fully described in Tonelli et al, Endocrinology, vol. 77, pp. 625-634, 1965, and which is hereby incorporated herein by reference) topical application of four % croton oil in ethanol (v/v) to the ears of mice causes intercellular edema, vasodilation, and polymorphonuclear leucocyte infiltration into the dermis, leading to an increase over normal ear weight of about 70 to 100%. The inflammatory response is nearly maximal by 6 hours. In the croton oil tests, four volume % croton oil in ethanol was applied to the inner aspect of both ears of each test mouse, and various test materials in vehicle systems were applied to the outer aspect of the ears immediately following croton oil application. Control animals were exposed either to croton oil alone or to croton oil followed by the vehicle alone.
Six hours after exposure to croton oil and/or test material, animals were sacrificed; and punch biopsies of the ears were weighed and compared to the respective vehicle control.
Compounds were tested in simple solutions, including dimethylacetamide/acetone/ethanol (i.e., DMAC/A/E v/v 40/30/30) and N-methyl pyrrolidone/ethanol (NMP/E v/v 50/50). Comparative controls were chosen based on their known activity in each of the three above-described animal assays and included in all three tests (in Examples 1, 2 and 3) hydrocortisone valerate (HCV) in the croton oil and oxazolone assays, indomethacin (which is a potent aspirin-like nonsteroidal anti-inflammatory agent) in the UVB test, and salbutamol (a β2 agonist, discussed above in the Background of the Invention).
(§1) The percent inhibition of induced mouse ear edema (or erythema) for each of the three models (in Examples 1, 2 and 3) is calculated: [formula]

[2] = test system: croton oil-induced ear edema in mice; assay: Croton oil-induced ear edema in mice, compounds IV and V vs zinterol (Example 4); format: in vivo, Swiss albino mice; conditions: for % Reduction of Ear Edema Weight as Compared to Control Ears, Mean ± S.D.: mean of studies; for % Reduction of Ear Edema Weight as Compared to Control Ears / Anti-inflammatory activity in croton oil-induced ear edema (in words): topical; for % Reduction of Ear Edema Weight as Compared to Control Ears: 6 h, single study; for Anti-inflammatory activity in croton oil-induced ear edema (in words): NMP/ETOH
Description: In these tests, the anti-inflammatory effect of these three β2 agonists when applied topically to the croton oil-induced ear edema in mice was investigated. In these tests, 50 μl of 4 weight percent croton oil in ethanol was applied to the inner aspects of the right and the left ears of Swiss albino mice, followed immediately by 25 μof suspensions of 0.02, 0.2, and 0.8 weight percent of compound IV and compound V in N-methylpyrrolidone/Ethyl alcohol (i.e., NMP/ETOH) applied to the outer aspect of each ear. Croton oil treated and nontreated control groups were included. These control groups are included in the data as described hereinbefore.
Six hours later, the animals were sacrificed with CO2 gas, and a 5/16 inch punch biopsy of each ear was taken and weighed immediately.
The anti-inflammatory effects for the test agents were assessed by a comparison of the biopsy weights of the test and control groups.

[3] = test system: Oxazolone-Induced Edema in Mouse Ear; assay: Oxazolone-induced ear edema in mice (Example 2); format: in vivo; conditions: for % Inhibition of Oxazolone-Induced Edema in Mouse Ear: topical, mean of 10 to 15 animals; for Topical Anti-Inflammatory Activity, Oxazolone Assay (Edema): summary grade of % inhibition
Text: Oxazolone-induced contact sensitization in mice is characterized by edema and cellular infiltration, primarily of the monocyte type, with close to 100% increase in the mouse ear weight.

[4] = test system: UVB-Induced Erythema in Guinea Pig; assay: UVB-induced erythema in guinea pigs (Example 3); format: in vivo; conditions: for Topical Anti-Inflammatory Activity, UV-B Assay (Erythema): summary grade of % inhibition; for Activity in the UVB assay (in words): zinterol 3 and 1.6 weight percent, indomethacin 1 weight percent
Description: as §1
In the UVB test, cutaneous erythema is induced in guinea pigs.This test is a standard test widely used for testing anti-inflammatory agents and is fully described in K. F. Swingle, "Evaluation for Anti-Inflammatory Activity", in Anti-Inflammatory Agents, vol. 2, ed. by Scherrer and Whitehouse, pp. 34-122, London: Academic Press, 1974, hereby incorporated herein by reference. In the UVB model, the test material was applied topically to the irradiated sites immediately following exposure to UVB. Erythema was scored on a 0 to 4 scale, 3 and 6 hours after irradiation.

[5] = Solubility of active ingredient in vehicles; format: physicochemical
[6] = 1.6 w/v %, in NMP/ETOH (50/50), salbutamol in Ethanol/H2O (50/50)
[7] = 0.02 % weight/volume in NMP/ETOH
[8] = 0.2 % weight/volume in NMP/ETOH
[9] = 0.8 % weight/volume in NMP/ETOH
[10] = 0.2 w/v %, in DMAC/acetone/ethanol (40:30:30)
[11] = 1.6 w/v %, in DMAC/acetone/ethanol (40:30:30)
[12] = 3 w/v %, in N-methylpyrrolidone:ethanol (1:1)
[13] = 3 w/v %, N-methyl 2-pyrrolidone/ethanol (50/50), 3 h, salbutamol in Ethanol/H2O or NMP/H2O
[14] = 3 w/v %, N-methyl 2-pyrrolidone/ethanol (50/50), 6 h, salbutamol in Ethanol/H2O or NMP/H2O

Cc1ccc(C(=O)Oc2ccc(C(O)CNC(C)(C)C)cc2OC(=O)c2ccc(C)cc2)cc1 (centres unmarked) [Bitolterol, bitolterol]
% Inhibition of Croton Oil-Induced Mouse Ear Edema ([1]; 0.2 w/v %, in NMP/ETOH (50/50)): 42% and 25% and 34%
% Inhibition of Croton Oil-Induced Mouse Ear Edema [1, 6]: 61%
Reduction in ear edema in the croton oil assay (in words) [1]: good to moderate reductions in ear edema

CC(Cc1c[nH]c2ccccc12)NCC(O)c1ccc(O)c(NS(C)(=O)=O)c1 (centres unmarked) [Compound IV]
% Reduction of Ear Edema Weight as Compared to Control Ears, Mean ± S.D. [2, 7]: 18.1 ± 10.6%
% Reduction of Ear Edema Weight as Compared to Control Ears [2, 8]: 32.9% and 48.7% and 49.4%
% Reduction of Ear Edema Weight as Compared to Control Ears, Mean ± S.D. [2, 8]: 43.7 ± 9.3%
% Reduction of Ear Edema Weight as Compared to Control Ears [2, 9]: 61.6% and 53.4%
% Reduction of Ear Edema Weight as Compared to Control Ears, Mean ± S.D. [2, 9]: 57.5 ± 5.8%
Anti-inflammatory activity in croton oil-induced ear edema (in words) [2]: comparable to that of zinterol

CC(C)(Cc1c[nH]c2ccccc12)NCC(O)c1ccc(O)c(NS(C)(=O)=O)c1 (centres unmarked) [Compound V]
% Reduction of Ear Edema Weight as Compared to Control Ears [2, 7]: 29.9%
% Reduction of Ear Edema Weight as Compared to Control Ears [2, 8]: 53.5%
% Reduction of Ear Edema Weight as Compared to Control Ears [2, 9]: 69.9%
Anti-inflammatory activity in croton oil-induced ear edema (in words) [2]: comparable to that of zinterol

CCCCC(=O)O[C@]1(C(=O)CO)CC[C@H]2[C@@H]3CCC4=CC(=O)CC[C@]4(C)[C@H]3[C@@H](O)C[C@@]21C [HCV, hydrocortisone valerate]
% Inhibition of Croton Oil-Induced Mouse Ear Edema ([1]; 0.2 w/v %, in DMAC/Acetone/ETOH, salbutamol in Ethanol/H2O (50/50), minus = potentiation): 25% and 38% and 34%
% Inhibition of Croton Oil-Induced Mouse Ear Edema ([1]; 0.2 w/v %, in NMP/ETOH (50/50)): 71% and 62% and 64% and 67% and 73%
% Inhibition of Croton Oil-Induced Mouse Ear Edema [1, 6]: 70% and 71%
Topical Anti-Inflammatory Activity, Croton Oil Assay (Edema) [1]: +++ (+++ = high (60%))
% Inhibition of Oxazolone-Induced Edema in Mouse Ear [3, 10]: 16%
% Inhibition of Oxazolone-Induced Edema in Mouse Ear [3, 11]: 36% and 27%
% Inhibition of Oxazolone-Induced Edema in Mouse Ear [3, 12]: 39%
Topical Anti-Inflammatory Activity, Oxazolone Assay (Edema) [3]: + (+ = Slight (30-44))

COc1ccc2c(c1)c(CC(=O)O)c(C)n2C(=O)c1ccc(Cl)cc1 [Indomethacin, indomethacin]
Topical Anti-Inflammatory Activity, Croton Oil Assay (Edema) [1]: + (+ = Slight (30-44))
Topical Anti-Inflammatory Activity, Oxazolone Assay (Edema) [3]: + (+ = Slight (30-44))
% Change in UVB-Induced Erythema in Guinea Pig ([4]; 1%, DMAC/acetone/ethanol (40/30/30), 3 h): 72% and 54% and 82%
% Change in UVB-Induced Erythema in Guinea Pig ([4]; 1%, DMAC/acetone/ethanol (40/30/30), 6 h): 43% and 48% and 54%
% Change in UVB-Induced Erythema in Guinea Pig ([4]; 1%, N-methyl 2-pyrrolidone/ethanol (50/50), 3 h): 100% and 93% and 91%
% Change in UVB-Induced Erythema in Guinea Pig ([4]; 1%, N-methyl 2-pyrrolidone/ethanol (50/50), 6 h): 74% and 85% and 87%
Topical Anti-Inflammatory Activity, UV-B Assay (Erythema) [4]: +++ (+++ = high (60%))
Activity in the UVB assay (in words) [4]: good to very good activity

CC(C)(C)NCC(O)c1ccc(O)c(CO)c1 (centres unmarked) [Salbutamol, salbutamol]
Topical Anti-Inflammatory Activity, Croton Oil Assay (Edema) [1]: + (+ = Slight (30-44))
% Inhibition of Oxazolone-Induced Edema in Mouse Ear [3, 10]: -1% and -9%
% Inhibition of Oxazolone-Induced Edema in Mouse Ear [3, 11]: 2% and 0%
% Inhibition of Oxazolone-Induced Edema in Mouse Ear ([3]; 1.6 w/v %, in N-methylpyrrolidone:ethanol (1:1)): 21% and 28%
% Inhibition of Oxazolone-Induced Edema in Mouse Ear [3, 12]: 31%
Topical Anti-Inflammatory Activity, Oxazolone Assay (Edema) [3]: + (+ = Slight (30-44))
% Change in UVB-Induced Erythema in Guinea Pig ([4]; 1.6 w/v %, DMAC/acetone/ethanol (40/30/30), 3 h, salbutamol in Ethanol/H2O or NMP/H2O): 9%
% Change in UVB-Induced Erythema in Guinea Pig ([4]; 1.6 w/v %, DMAC/acetone/ethanol (40/30/30), 6 h, salbutamol in Ethanol/H2O or NMP/H2O): +4%
% Change in UVB-Induced Erythema in Guinea Pig [4, 13]: 42% and 45%
% Change in UVB-Induced Erythema in Guinea Pig [4, 14]: 32% and 25%
Topical Anti-Inflammatory Activity, UV-B Assay (Erythema) [4]: + (+ = Slight (30-44))

CC(C)(Cc1ccccc1)NCC(O)c1ccc(O)c(NS(C)(=O)=O)c1 (centres unmarked) [Zinterol, 2-hydroxy-5'-[1-hydroxy-2-(2-methyl-1-phenyl-2-propylamino)ethyl]methanesulfonanilide]
Topical cutaneous anti-inflammatory activity in the croton oil assay (in words) ([1]; 1.6 w/v %): high topical cutaneous anti-inflammatory activity
% Inhibition of Croton Oil-Induced Mouse Ear Edema ([1]; 1.6 w/v %, in DMAC/Acetone/ETOH, salbutamol in Ethanol/H2O (50/50)): 69% and 50% and 81% and 66% and 63% and 48% and 45%
% Inhibition of Croton Oil-Induced Mouse Ear Edema [1, 6]: 69% and 63% and 70% and 48% and 73%
Topical Anti-Inflammatory Activity, Croton Oil Assay (Edema) [1]: +++ (+++ = high (60%))
Reduction in ear edema in the croton oil assay (in words) [1]: good to moderate reductions in ear edema
Reduction in ear edema in the oxazolone assay (in words) ([3]; 3 and 1.6 weight percent): slight reduction in ear edema with no dose-related effect
% Inhibition of Oxazolone-Induced Edema in Mouse Ear [3, 12]: 39%
Topical Anti-Inflammatory Activity, Oxazolone Assay (Edema) [3]: + (+ = Slight (30-44))
% Reduction of Ear Edema Weight as Compared to Control Ears [2, 7]: 14.2% and 23.6%
% Reduction of Ear Edema Weight as Compared to Control Ears, Mean ± S.D. [2, 7]: 18.9 ± 6.6%
% Reduction of Ear Edema Weight as Compared to Control Ears [2, 8]: 39.5% and 66.2% and 46.6%
% Reduction of Ear Edema Weight as Compared to Control Ears, Mean ± S.D. [2, 8]: 50.8 ± 13.8%
% Reduction of Ear Edema Weight as Compared to Control Ears [2, 9]: 68.2% and 56.6%
% Reduction of Ear Edema Weight as Compared to Control Ears, Mean ± S.D. [2, 9]: 62.4 ± 8.2%
% Change in UVB-Induced Erythema in Guinea Pig ([4]; 1.6 w/v %, N-methyl 2-pyrrolidone/ethanol (50/50), 3 h): 9%
% Change in UVB-Induced Erythema in Guinea Pig ([4]; 1.6 w/v %, N-methyl 2-pyrrolidone/ethanol (50/50), 6 h): 26%
% Change in UVB-Induced Erythema in Guinea Pig [4, 13]: 48% and 75%
% Change in UVB-Induced Erythema in Guinea Pig [4, 14]: 18% and 25%
Topical Anti-Inflammatory Activity, UV-B Assay (Erythema) [4]: + (+ = Slight (30-44))
Activity in the UVB assay (in words) [4]: slight to moderate activity with no consistent dose effect

CC(C)(Cc1ccccc1)NCC(O)c1ccc(O)c(NS(C)(=O)=O)c1 (centres unmarked) [zinterol hydrochloride]
solubility ([5]; organic solvent or mixture, cream vehicle, read-out: Amount that will dissolve in creams): ≤ 7000 µg/mL
Solubility (in words) ([5]; water): water soluble
